Experimental data reported in ChEMBL document CHEMBL1955764, “Synthesis and biological activity of 23-ethylidene-26-hydroxy-22-oxocholestane derivatives from spirostanic sapogenins” (Eur J Med Chem, 2012).
Calls of active or inactive are those of the source. The calls are words filed in the database; no cut-off is given here.

Assays:
CCRF-CEM [1] = assay: Cytotoxicity against human CEM cells after 72 hrs by calcein AM assay; type: functional, cell-based
BJ = assay: Cytotoxicity against human BJ cells after 72 hrs by calcein AM assay; type: cell-based
MCF7 = assay: Cytotoxicity against human MCF7 cells after 72 hrs by calcein AM assay; type: functional, cell-based; conditions: MCF7, 72 h
HeLa = assay: Cytotoxicity against human HeLa cells after 72 hrs by calcein AM assay; type: functional, cell-based
CCRF-CEM [2] = assay: Induction of apoptosis in human CEM cells assessed as increase of caspase 3/7 activity using Ac-DEVD-AMC as substrate at 50 uM after 24 hrs relative to control; type: functional
CCRF-CEM [3] = assay: Cell cycle arrest in human CEM cells assessed as decrease of procaspase 3 level after 24 hrs by Western blotting analysis; type: functional, cell-based
CCRF-CEM [4] = assay: Cell cycle arrest in human CEM cells assessed as decrease of procaspase 3 level at 50 uM after 24 hrs by Western blotting analysis; type: functional, cell-based
CCRF-CEM [5] = assay: Cell cycle arrest in human CEM cells assessed as accumulation at G0/G1 phase at 5 to 50 uM after 24 hrs using propidium iodide staining by flow cytometric analysis; type: functional, cell-based
CCRF-CEM [6] = assay: Cell cycle arrest in human CEM cells assessed as increase of cleaved of PARP level at 50 uM after 24 hrs by Western blotting analysis; type: functional, cell-based
CCRF-CEM [7] = assay: Cell cycle arrest in human CEM cells assessed as accumulation at G1 phase after 24 hrs using propidium iodide staining by flow cytometric analysis; type: functional, cell-based
CCRF-CEM [8] = assay: Cell cycle arrest in human CEM cells assessed as increase of cleaved of PARP level after 24 hrs by Western blotting analysis; type: functional, cell-based
CCRF-CEM [9] = assay: Cell cycle arrest in human CEM cells assessed as accumulation at G2/M phase at 5 to 50 uM after 24 hrs using propidium iodide staining by flow cytometric analysis; type: functional, cell-based
CCRF-CEM [10] = assay: Cell cycle arrest in human CEM cells assessed as accumulation at sub-G1 phase at 5 to 50 uM after 24 hrs using propidium iodide staining by flow cytometric analysis; type: functional, cell-based

| Structure (SMILES) | IC50 (CCRF-CEM [1]) | IC50 (BJ) | IC50 (MCF7) | IC50 (HeLa) | fold change (FC) (CCRF-CEM [2]) | Activity (CCRF-CEM [3]) | Activity (CCRF-CEM [4]) | Activity (CCRF-CEM [5]) | Activity (CCRF-CEM [6]) | Activity (CCRF-CEM [7]) | Activity (CCRF-CEM [8]) | Activity (CCRF-CEM [9]) | Activity (CCRF-CEM [10]) |
| --- | --- | --- | --- | --- | --- | --- | --- | --- | --- | --- | --- | --- | --- |
| C/C=C(\C[C@@H](C)CO)C(=O)[C@@H](C)[C@H]1[C@@H](OC(C)=O)C[C@H]2[C@@H]3CC=C4C[C@@H](OC(C)=O)CC[C@]4(C)[C@H]3CC(=O)[C@]12C | 19 µM | > 50 µM | > 50 µM | > 50 µM | – | – | – | – | – | – | – | – | – |
| C/C=C(\C[C@@H](C)CO)C(=O)[C@@H](C)[C@H]1[C@@H](OC(C)=O)C[C@H]2[C@@H]3CC[C@H]4C[C@@H](OC(C)=O)CC[C@]4(C)[C@H]3CC[C@]12C | 5.9 µM | > 50 µM | 14.7 µM | > 50 µM | 4.3 | Dose-dependent effect | Active | Active | Active | Dose-dependent effect | Dose-dependent effect | Active | Active |
| CC(=O)O[C@H]1CC[C@@]2(C)C(=CC[C@H]3[C@@H]4C[C@H](OC(C)=O)[C@H]([C@H](C)C(=O)C5=C(C)OC[C@H](C)C5)[C@@]4(C)[C@H](O)C[C@@H]32)C1 | 13.9 µM | > 50 µM | > 50 µM | > 50 µM | – | – | – | – | – | – | – | – | – |
| CC(=O)O[C@H]1CC[C@@]2(C)C(=CC[C@H]3[C@@H]4C[C@H](OC(C)=O)[C@H]([C@H](C)C(=O)C5=C(C)OC[C@H](C)C5)[C@@]4(C)CC[C@@H]32)C1 | 40.9 µM | > 50 µM | > 50 µM | > 50 µM | – | – | – | – | – | – | – | – | – |
| CC(=O)O[C@H]1CC[C@@]2(C)C(=CC[C@H]3[C@@H]4C[C@H](OC(C)=O)[C@H]([C@H](C)C(=O)C5=C(C)OC[C@H](C)C5)[C@@]4(C)C(=O)C[C@@H]32)C1 | 10.5 µM | > 50 µM | 47.1 µM | > 50 µM | – | – | – | – | – | – | – | – | – |
| CC(=O)O[C@H]1CC[C@@]2(C)[C@@H](CC[C@@H]3[C@@H]2CC[C@]2(C)[C@@H]([C@H](C)C(=O)C4=C(C)OC[C@H](C)C4)[C@@H](OC(C)=O)C[C@@H]32)C1 | 20.7 µM | > 50 µM | 35.7 µM | > 50 µM | – | – | – | – | – | – | – | – | – |
| CC(C)CCC[C@@H](C)[C@H]1CC[C@H]2[C@@H]3CC=C4C[C@@H](O)CC[C@]4(C)[C@H]3CC[C@]12C [CHOLESTEROL] | > 50 µM | > 50 µM | > 50 µM | > 50 µM | – | – | – | – | – | – | – | – | – |
| C/C=C(\C[C@@H](C)CO)C(=O)[C@@H](C)[C@H]1[C@@H](OC(C)=O)C[C@H]2[C@@H]3CC=C4C[C@@H](OC(C)=O)CC[C@]4(C)[C@H]3CC[C@]12C | 11.1 µM | > 50 µM | > 50 µM | > 50 µM | 2.4 | Dose-dependent effect | Active | Active | Active | Dose-dependent effect | Dose-dependent effect | Active | Active |
